What was measured:
Format in all cases: functional
SK-MEL-5 = assay: Cytotoxicity against Homo sapiens (human) SK-MEL-5 cells after 48 hr by SRB assay; conditions: SK-MEL-5, 48 h
Pseudomonas aeruginosa [1] = assay: Antimicrobial activity against Pseudomonas aeruginosa ATCC 9027 after 24 hr by agar cup diffusion technique
[2] = Cytotoxicity against Homo sapiens (human) NSCLC cell after 48 hr by SRB assay
[3] = Cytotoxicity against Homo sapiens (human) Breast cancer cell after 48 hr by SRB assay; conditions: Cancer cell lines
T47D = assay: Cytotoxicity against Homo sapiens (human) T47D cells after 48 hr by SRB assay
Aspergillus niger = assay: Antimicrobial activity against Aspergillus niger ATCC 16404 after 48 hr by agar cup diffusion technique
SF-268 = assay: Anticancer activity against Homo sapiens (human) SF268 cells assessed as cell growth at 100 uM after 48 hr by Alamar blue assay; conditions: SF-268, 48 h, read-out: Activity
NCI-H460 = assay: Anticancer activity against Homo sapiens (human) NCI-H460 cells assessed as cell growth at 100 uM after 48 hr by Alamar blue assay; conditions: NCI-H460, 48 h, read-out: Activity
Malme-3M = assay: Cytotoxicity against Homo sapiens (human) MALME-3M cells after 48 hr by SRB assay
A498 = assay: Cytotoxicity against Homo sapiens (human) A498 cells after 48 hr by SRB assay; conditions: A498, 48 h
[4] = Cytotoxicity against Homo sapiens (human) Melanoma cell after 48 hr by SRB assay
Escherichia coli [5] = assay: Antimicrobial activity against Escherichia coli 5933 after 24 hr by agar cup diffusion technique
Proteus vulgaris [6] = assay: Antimicrobial activity against Proteus vulgaris ATCC 49132 after 24 hr by agar cup diffusion technique
NCI-H226 = assay: Cytotoxicity against Homo sapiens (human) NCI-H226 cells after 48 hr by SRB assay; conditions: NCI-H226, 48 h
[7] = Cytotoxicity against Homo sapiens (human) Colon cancer cell after 48 hr by SRB assay; conditions: Cancer cell lines
Candida albicans = assay: Antimicrobial activity against Candida albicans NCTC 2708 after 48 hr by agar cup diffusion technique
ACHN = assay: Cytotoxicity against Homo sapiens (human) ACHN cells after 48 hr by SRB assay
[8] = Cytotoxicity against Homo sapiens (human) CNS cancer cell after 48 hr by SRB assay; conditions: Cancer cell lines
[9] = Cytotoxicity against Homo sapiens (human) Prostate cancer cell after 48 hr by SRB assay; conditions: Cancer cell lines
Salmonella typhi = assay: Antimicrobial activity against Salmonella enterica subsp. enterica serovar Typhi ATCC 13311 after 24 hr by agar cup diffusion technique
MCF7 = assay: Anticancer activity against Homo sapiens (human) MCF7 cells assessed as cell growth at 100 uM after 48 hr by Alamar blue assay; conditions: MCF7, 48 h, read-out: Activity
HOP-92 = assay: Cytotoxicity against Homo sapiens (human) HOP92 cells after 48 hr by SRB assay; conditions: HOP-92, 48 h
CCRF-CEM = assay: Cytotoxicity against Homo sapiens (human) CCRF-CEM cells after 48 hr by SRB assay
[10] = Cytotoxicity against Homo sapiens (human) Leukemia cell after 48 hr by SRB assay
Saccharomyces cerevisiae = assay: Antimicrobial activity against Saccharomyces cerevisiae ATCC 9763 after 48 hr by agar cup diffusion technique
[11] = Cytotoxicity against Homo sapiens (human) Ovarian cancer cell after 48 hr by SRB assay; conditions: Cancer cell lines
CAKI-1 = assay: Cytotoxicity against Homo sapiens (human) CAKI-1 cells after 48 hr by SRB assay; conditions: CAKI-1, 48 h
Bacillus spizizenii [12] = assay: Antimicrobial activity against Bacillus subtilis subsp. spizizenii ATCC 6633 after 24 hr by agar cup diffusion technique
UO-31 = assay: Cytotoxicity against Homo sapiens (human) UO31 cells after 48 hr by SRB assay; conditions: UO-31, 48 h
[13] = Cytotoxicity against Homo sapiens (human) Renal cancer cell after 48 hr by SRB assay; conditions: Cancer cell lines
Aspergillus terreus = assay: Antimicrobial activity against Aspergillus terreus after 48 hr by agar cup diffusion technique
Pseudomonas aeruginosa [14] = assay: Antimicrobial activity against Pseudomonas aeruginosa ATCC 9027 after 24 hr by two-fold serial dilution method; conditions: ATCC 9027, 24 h
Proteus vulgaris [15] = assay: Antimicrobial activity against Proteus vulgaris ATCC 49132 after 24 hr by two-fold serial dilution method; conditions: ATCC 49132, 24 h
Staphylococcus aureus = assay: Antimicrobial activity against Staphylococcus aureus NCTC 4163 after 24 hr by agar cup diffusion technique
Bacillus spizizenii [16] = assay: Antimicrobial activity against Bacillus subtilis subsp. spizizenii ATCC 6633 after 24 hr by two-fold serial dilution method; conditions: ATCC 6633, 24 h
Escherichia coli [17] = assay: Antimicrobial activity against Escherichia coli 5933 after 24 hr by two-fold serial dilution method; conditions: Escherichia coli, 5933, 24 h

With `Cn1c(=O)c2nc3[nH]nc(C#N)c(=N)n3c2n(C)c1=O` as the compound, how does the GI50 (SK-MEL-5) read?
Its GI50 is 45.9 µM.

And the “inhibition zone (IZ)” value (Pseudomonas aeruginosa [1])?
Its value is 18 mm.

What about the GI50 [2] of the same compound?
The GI50 was 87.3 µM.

And the TGI [2]?
The TGI was 100 µM.

And the GI50 [3]?
The GI50 was 91.6 µM.

And the TGI [3]?
The TGI was 100 µM.

And the GI50 (T47D)?
The GI50 was 32.9 µM.

And the “inhibition zone (IZ)” value (Aspergillus niger)?
The value was 12 mm.

And the growth at 100 µM (SF-268)?
The growth at 100 µM was 47%.

What about the growth at 100 µM (NCI-H460) of the same compound?
Its growth at 100 µM is 62%.

What about the GI50 (Malme-3M) of the same compound?
The GI50 was 25.2 µM.

What about the GI50 (A498) of the same compound?
The GI50 was 51.4 µM.

And the GI50 [4]?
The GI50 was 81.6 µM.

What about the TGI [4] of the same compound?
The TGI was 96.9 µM.

What about the “inhibition zone (IZ)” value (Escherichia coli [5]) of the same compound?
Its value is 14 mm.

What about the “inhibition zone (IZ)” value (Proteus vulgaris [6]) of the same compound?
The value was 19 mm.

And the GI50 (NCI-H226)?
The GI50 was 54 µM.

And the GI50 [7]?
Its GI50 is 100 µM.

And the TGI [7]?
Its TGI is 100 µM.

What about the “inhibition zone (IZ)” value (Candida albicans) of the same compound?
The value was 12 mm.

And the GI50 (ACHN)?
Its GI50 is 44.3 µM.

And the GI50 [8]?
The GI50 was 98 µM.

And the TGI [8]?
The TGI was 100 µM.

And the GI50 [9]?
Its GI50 is 86.3 µM.

And the TGI [9]?
Its TGI is 100 µM.

And the “inhibition zone (IZ)” value (Salmonella typhi)?
The value was 12 mm.

What about the growth at 100 µM (MCF7) of the same compound?
Its growth at 100 µM is 14%.

And the GI50 (HOP-92)?
The GI50 was 31.8 µM.

What about the GI50 (CCRF-CEM) of the same compound?
The GI50 was 67.8 µM.

And the GI50 [10]?
The GI50 was 94.6 µM.

What about the TGI [10] of the same compound?
The TGI was 100 µM.

And the “inhibition zone (IZ)” value (Saccharomyces cerevisiae)?
The value was 14 mm.

And the GI50 [11]?
The GI50 was 97.9 µM.

What about the TGI [11] of the same compound?
The TGI was 100 µM.

And the GI50 (CAKI-1)?
Its GI50 is 51.7 µM.

And the “inhibition zone (IZ)” value (Bacillus spizizenii [12])?
Its value is 14 mm.

And the GI50 (UO-31)?
Its GI50 is 50.6 µM.

And the GI50 [13]?
The GI50 was 72.2 µM.

What about the TGI [13] of the same compound?
Its TGI is 100 µM.

Which “inhibition zone (IZ)” value (Pseudomonas aeruginosa [1]) does the source give for `COc1ccc(-c2nnc3n(C)c4c(=O)n(C)c(=O)n(C)c4n23)cc1` here?
Its value is 21 mm.

And the “inhibition zone (IZ)” value (Aspergillus terreus)?
The value was 16 mm.

And the MIC (Pseudomonas aeruginosa [14])?
Its MIC is less than 200 µg/mL.

And the “inhibition zone (IZ)” value (Escherichia coli [5])?
The value was 20 mm.

What about the “inhibition zone (IZ)” value (Proteus vulgaris [6]) of the same compound?
The value was 28 mm.

What about the “inhibition zone (IZ)” value (Candida albicans) of the same compound?
Its value is 18 mm.

What about the MIC (Proteus vulgaris [15]) of the same compound?
Its MIC is less than 50 µg/mL.

What about the “inhibition zone (IZ)” value (Staphylococcus aureus) of the same compound?
Its value is 14 mm.

What about the “inhibition zone (IZ)” value (Salmonella typhi) of the same compound?
Its value is 17 mm.

And the “inhibition zone (IZ)” value (Saccharomyces cerevisiae)?
The value was 16 mm.

What about the MIC (Bacillus spizizenii [16]) of the same compound?
Its MIC is less than 200 µg/mL.

What about the “inhibition zone (IZ)” value (Bacillus spizizenii [12]) of the same compound?
Its value is 20 mm.

And the MIC (Escherichia coli [17])?
The MIC was less than 200 µg/mL.
